Patent EP3079693B1 (priority 2013, dated 2015)

Experiments:
[1] = molecular target: T1, influenza A RNA-dependent RNA polymerase (Influenza A virus, UniProt P03428+P03431+P03433)
[2] = test system: influenza A/Puerto Rico/8/34 (H1N1) virus; format: cell-based
[3] = molecular target: T1, influenza A RNA-dependent RNA polymerase; assay: cell-based
[4] = test system: influenza A/WS/1933 (H1N1); format: cell-based
[5] = test system: influenza A/Puerto Rico/8/34; assay: In vivo survival study after live infection; parameters: species or system Balb/C mice; conditions: 3 doses, 2xLD50 intranasal challenge, survival = 70% or more of starting weight
Procedure: In Vivo Survival Studies: Groups of 5 Balb/C mice ([…]) were weighed prior to the start of study and injected intravenously at the base of the tail with formulations containing A0435 at doses of 3.17, 1, or 0 mg/kg in phosphate buffered saline containing 3% w/v mouse serum albumin. Four hours later, these mice were challenged intranasally with 2xLD50 of influenza A/Puerto Rico/8/34 under anesthesia. Identical doses of A0435 were administered 24 and 48 hours after the initial dose administration and animal weights were monitored daily. Surviving animals were defined as those who maintained 70% or more of their starting weight.

influenza A = format: cell-based
[6] = test system: liver-derived HepG2 cells
[7] = test system: H3N2 serotype A/Aichi/2/68; format: cell-based, influenza A
influenza B = assay: Inhibition of influenza B (method not described)
[8] = test system: constitutive gene expression; assay: Counter screen: separate reporter system with cell death-activated reporter construct (constitutive gene expression); conditions: for observed toxicity or efficacy in either assay tested: antiviral and counterscreen assay
[9] = test system: primary renal proximal tubule epithelial cells (or RPTEC)

With `CCc1c(C)nc2cc(-c3ccc(OC)c(OC)c3)nn2c1NCCc1ccccc1C` [A0439, 2-(3,4-dimethoxyphenyl)-6-ethyl-5-methyl-N-[2(2-methylphenyl)ethyl]pyrazolo[1,5-a]pyrimidin-7-amine] the “toxicity in the reporter assay” value [1] was “increased toxicity at higher doses due to precipitation”, the “concentrations with significant antiviral activity” value [2] was over 7.5 µM and the IC50 [3] was about 5 µM.
With `CCc1c(C)nc2cc(-c3ccc(OC)c(OC)c3)nn2c1NCCc1ccccn1` [A0435, 2-(3,4-dimethoxyphenyl)-6-ethyl-5-methyl-N-[2(pyridin-2-yl)ethyl]pyrazolo[1,5-a]pyrimidin-7-amine] the inhibition of virus [4] was “significantly inhibited”, the “animals survived infection at day 7 post-infection” value ([5]; 1 mg/kg intravenously) was 2/5 and the “animals survived infection at day 7 post-infection” value ([5]; 3.17 mg/kg intravenously) was 3/5. For the same compound, the “cytopathic effects characteristic of influenza A infection” value (influenza A) was “little to no signs of the cytopathic effects”, the “tolerability in cellular model of toxicity” value [6] was “well-tolerated” and the inhibition of virus [7] was “significantly inhibited”. For the same compound, the “inhibition of influenza B” value (influenza B) was “inhibitable”, the “concentrations with significant antiviral activity” value [2] was over 4 µM and the “inhibitory impact on the level of constitutive gene expression” value ([8]; counter-screen assay, dose titration) was “no visible inhibitory impact”. For the same compound, the “tolerability in cellular model of toxicity” value [9] was “well-tolerated” and the IC50 [3] was about 3 µM.
With `COc1ccc(-c2c(C)nn3c(NCC(C)c4ccccc4)cc(C)nc23)cc1OC` (centres unmarked) [A0549, 3-(3,4-dimethoxyphenyl)-2,5-dimethyl-N-(2-phenylpropyl)pyrazolo[1,5-a]pyrimidin-7-amine] the “observed toxicity or efficacy in either assay tested” value [8] was >50 µM (no observed toxicity or efficacy in either assay tested) and the IC50 [3] was over 50 µM.
In the case of `COc1cc(OC)cc(-c2cc3nc(C)cc(NCC(C)c4ccccc4)n3n2)c1` (centres unmarked) [A0525, 2-(3,5-dimethoxyphenyl)-5-methyl-N-(2-phenylpropyl)pyrazolo[1,5-a]pyrimidin-7-amine], the “observed toxicity or efficacy in either assay tested” value [8] is reported as >50 µM (no observed toxicity or efficacy in either assay tested) and the IC50 [3] is reported as over 50 µM.
In the case of `COc1ccc(-c2cc3nc4c(c(NCCc5cccnc5)n3n2)CCC4)cc1OC` [A0444, 2-(3,4-dimethoxyphenyl)-N-(2-(pyridin-3-yl)ethyl)-6,7-dihydro-5H-cyclopenta[d]pyrazolo[1,5-a]pyrimidin-8-amine], the “toxicity in antiviral and counterscreen assays” value ([8]; at 50uM, both antiviral and counterscreen assay) is reported as >10uM (toxic to both antiviral and counterscreen at 50uM) and the IC50 [3] is reported as over 10 µM.
